Laboratory results: patent US7557137B2, “Gamma-lactams as beta-secretase inhibitors” (Bristol-Myers Squibb Company, priority 2002, dated 2009)

biological target: T1, BACE enzyme (Homo sapiens, UniProt P56817); assay: BACE enzyme inhibition, fluorescence-quenched peptide substrate MCA-EVNLDAEFK(DNP); type: biochemical; settings: 50 mM acetate, pH 4.5, 0.25 mg/ml bovine serum albumin, 2.5% DMSO; read-out: Activity Rating (based on IC50 values)
T1 construct: the catalytic domain, appended by a C-terminal poly-histidine tag, is secreted out into the cellular medium; made in house; host or cells: Drosophila melanogaster S2 cells
T1 sequence (P56817 75-416 limits assumed): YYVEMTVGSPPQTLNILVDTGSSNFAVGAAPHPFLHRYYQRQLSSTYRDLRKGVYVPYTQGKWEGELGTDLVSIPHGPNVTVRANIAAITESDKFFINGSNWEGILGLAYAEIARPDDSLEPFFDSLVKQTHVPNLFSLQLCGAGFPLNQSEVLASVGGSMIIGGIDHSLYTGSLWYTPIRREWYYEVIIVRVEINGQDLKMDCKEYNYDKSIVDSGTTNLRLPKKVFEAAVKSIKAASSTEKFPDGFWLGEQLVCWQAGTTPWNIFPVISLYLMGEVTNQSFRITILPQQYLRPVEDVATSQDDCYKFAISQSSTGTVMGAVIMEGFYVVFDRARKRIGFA
Text: There are a number of methods by which inhibitors of the BACE enzyme can be identified experimentally. The enzyme can be obtained from membrane samples from natural tissues or cultured cells or can be expressed recombinantly in a host cell by well known methods of molecular biology. […] The enzymatic activity and/or ligand binding capability of the enzyme can be assessed within these membrane samples, or the enzyme can be purified to varying extents. As an illustrative example, the nucleic acid sequence encoding the pro and catalytic domains of human BACE can be appended on the 5′ end with an untranslated and signal sequence from the gene for acetylcholinesterase, and on the 3′ end with a sequence encoding a poly-histidine tag. This cDNA can then be expressed in Drosophila melanogaster S2 cells in which the signal and pro sequences of the transcribed/translated protein are removed by cellular proteases and the catalytic domain, appended by a C-terminal poly-histidine tag, is secreted out into the cellular medium. The enzyme can then be purified from the culture medium by nickel affinity chromatography by methods well known to those trained in the art [Mallender, W. et al., (2001) “Characterization of recombinant, soluble beta-secretase from an insect cell expression system.” Mol. Pharmacol. 59: 619-626]. Similar strategies for expressing and purifying various forms of BACE in bacterial, mammalian and other cell types would be known to one skilled in the art.
The enzyme thus obtained can be put in contact with a test compound and with an appropriate substrate on which enzyme-mediated peptide bond hydrolysis is known to occur. The ability of the test compound to diminish the rate of substrate hydrolysis can then be quantified as a measure of inhibition potency. Appropriate substrates can be prepared as peptides, proteins, or chemically modified versions of peptides or proteins, that contain an amino acid sequence that is recognized as a substrate by the enzyme. For example, the amino acid sequence immediately proximal to the beta-cleavage site within Swedish mutant APP is known to be recognized as a substrate for BACE. […] Longer peptide and protein substrates can also be designed by extending the amino acid composition on the N-terminal, the C-terminal, or both ends.
In one known application of (SEQ. ID. NO.:1), X is a 7-methoxycoumarin-4-acetyl (MCA) group and Y is a dinitrophenyl (DNP) group [Marcinkeviciene, J. et al., (2001) “Mechanism of inhibition of beta-site amyloid precursor protein-cleaving enzyme (BACE) by a statine-based peptide.” J. Biol. Chem. 276: 23790-23794]. When this peptide is intact, the natural fluorescence of the MCA group is quenched by its proximity to the DNP group. […] The increase in fluorescence intensity that accompanies enzyme-mediated peptide hydrolysis can be measured as a function of time to quantify the velocity of enzyme catalysis. In a typical assay system the BACE enzyme is diluted into a buffer system composed of 50 mM acetate, pH 4.5 containing 0.25 mg/ml bovine serum albumin. To this is added neat dimethyl sulfoxide (DMSO) or a stock solution of test compound dissolved in DMSO so that the final amount of DMSO in all assays is held constant at 2.5% (v:v). The enzymatic reaction is then initiated by addition of a stock solution of the substrate peptide to a known concentration. The fluorescence increase with time after substrate addition is monitored with an appropriate fluorescence detection instrument, such as a microplate reader or spectrofluorometer. The slope of the signal vs. time plot (progress curve) for samples to which only DMSO was added is taken as a measure of the uninhibited velocity and represents 100% enzymatic activity.

Structure (SMILES)	IC50
CC[C@H](C)[C@@]1(NC(C)=O)CCN([C@@H](CCc2ccccc2)C(=O)N[C@@H](Cc2ccccc2F)[C@H](O)CNCc2cccc(Cl)c2)C1=O [Example 12, (2S)-2-(3(S)-acetylamino-3-((S)-sec-butyl)-2-oxo-pyrrolidin-1-yl)-N-[(1S,2R)-1-(2-fluorobenzyl)-2-hydroxy-3-(3-chloro-benzylamino)-propyl]-4-phenyl-butyramide]	100 to 1000 nM
CCC(C)[C@@]1(NC(=O)OC)CCN([C@@H](CCc2ccccc2)C(=O)N[C@@H](Cc2ccccc2)[C@@H](O)CNCc2cccc(OC)c2)C1=O (single isomer, unassigned) [Example 15]	1000 to 50000 nM
CC[C@H](C)[C@@]1(NC(=O)CCO)CCN([C@@H](CCc2ccccc2)C(=O)N[C@@H](Cc2ccccc2)[C@H](O)CNCc2cccc(OC)c2)C1=O [Example 24, (2S)-2-(3(S)-(3-hydroxypropionylamino)-3-((S)-sec-butyl)-2-oxo-pyrrolidin-1-yl)-N-[(1S,2R)-1-benzyl-2-hydroxy-3-(3-methoxy-benzylamino)-propyl]-4-phenyl-butyramide]	< 100 nM
CC(=O)N[C@]1(CC(C)C)CCN([C@@H](CCc2ccccc2)C(=O)N[C@@H](Cc2ccccc2)[C@H](O)CNCc2ccccc2)C1=O [Example 35, 2-(3(S)-Acetylamino-3(S)-isobutyl-2-oxo-pyrrolidin-1-yl)-N-[(1S,2R)-1-benzyl-2-hydroxy-3-benzylamino-propyl]-4-phenyl-butyramide]	< 100 nM
CC[C@H](C)[C@@]1(NC(C)=O)CCN([C@@H](CCc2ccccc2)C(=O)N[C@@H](Cc2ccccc2)[C@H](O)CNCC2CC2)C1=O [Example 31, (2S)-2-(3(S)-acetylamino-3-((S)-sec-butyl)-2-oxo-pyrrolidin-1-yl)-N-[(1S,2R)-1-benzyl-2-hydroxy-3-(cyclopropylmethyl)amino-propyl]-4-phenyl-butyramide]	100 to 1000 nM
CC(=O)N[C@]1(CC(C)C)CCN([C@@H](CCc2ccccc2)C(=O)N[C@@H](Cc2ccccc2)[C@H](O)CNCCC#N)C1=O [Example 37, 2-(3(S)-Acetylamino-3(S)-isobutyl-2-oxo-pyrrolidin-1-yl)-N-[(1S,2R)-1-benzyl-3-(2-cyano-ethylamino)-2-hydroxy-propyl]-4-phenyl-butyramide]	< 100 nM
COc1cccc(CNC[C@@H](O)[C@H](Cc2cc(F)cc(F)c2)NC(=O)[C@H](CCc2ccc(F)cc2)N2CCC(CC3CC3)(NC(C)=O)C2=O)c1 (stereo in doubt) [Example 41, (2S)-2-(3(S)-acetylamino-3-(cyclopropylmethyl)-2-oxo-pyrrolidin-1-yl)-N-[(1S,2R)-1-(3,5-difluorobenzyl)-2-hydroxy-3-(3-methoxybenzylamino)-propyl]-4-(4-fluorophenyl)-butyramide]	< 100 nM
CCC(C)[C@@]1(NS(=O)(=O)CC)CCN([C@@H](CCc2ccccc2)C(=O)N[C@@H](Cc2ccccc2)C(O)CNCc2cccc(OC)c2)C1=O (stereo partly drawn) [Example 26, (2S)-2-(3(S)-(ethylsulfonamido)-3-((S)-sec-butyl)-2-oxo-pyrrolidin-1-yl)-N-[(1S)-1-benzyl-2-hydroxy-3-(3-methoxy-benzylamino)-propyl]-4-phenyl-butyramide]	1000 to 50000 nM
COc1cccc(CC[C@@H](C(=O)N[C@@H](Cc2cc(F)cc(F)c2)[C@H](O)CNCc2cccc(OC)c2)N2CCC(CC3CC3)(NC(C)=O)C2=O)c1 (stereo in doubt) [Example 42, (2S)-2-(3(S)-acetylamino-3-(cyclopropylmethyl)-2-oxo-pyrrolidin-1-yl)-N-[(1S,2R)-1-(3,5-difluorobenzyl)-2-hydroxy-3-(3-methoxybenzylamino)-propyl]-4-(3-methoxyphenyl)-butyramide]	< 100 nM
CC[C@H](C)[C@@]1(NC(=O)CCCO)CCN([C@@H](CCc2ccccc2)C(=O)N[C@@H](Cc2ccccc2)[C@H](O)CNCc2cccc(OC)c2)C1=O [Example 25, (2S)-2-(3(S)-(4-hydroxybutyrylamino)-3-((S)-sec-butyl)-2-oxo-pyrrolidin-1-yl)-N-[(1S,2R)-1-benzyl-2-hydroxy-3-(3-methoxy-benzylamino)-propyl]-4-phenyl-butyramide]	< 100 nM
